Reference: the NIST ThermoML archive (doi:10.1016/j.fluid.2016.02.004)
± gives the expanded uncertainty stated by the source.

Assay: activity coefficient (dimensionless); of the first substance listed, at infinite dilution; xn = mol fraction of the nth substance listed
Settings: Liquid, Chromatography, x1 = 0

| SMILES | activity coefficient (318.15 K) | activity coefficient (328.15 K) | activity coefficient (338.15 K) | activity coefficient (348.15 K) | activity coefficient (358.15 K) | activity coefficient (368.15 K) |
| --- | --- | --- | --- | --- | --- | --- |
| CC(C)=O [acetone] + CCCCn1cc[n+](C)c1.N#CN=C=[N-] | 1 ± 0.06 | 1.05 ± 0.07 | 1.11 ± 0.07 | 1.16 ± 0.07 | 1.22 ± 0.08 | 1.27 ± 0.08 |
| Cc1ccccc1C [1,2-dimethylbenzene] + CCCCn1cc[n+](C)c1.N#CN=C=[N-] | 3.82 ± 0.26 | 3.97 ± 0.27 | 4.12 ± 0.28 | 4.27 ± 0.29 | 4.42 ± 0.3 | 4.57 ± 0.31 |
| C=CCCCCCCCC [1-decene] + CCCCn1cc[n+](C)c1.N#CN=C=[N-] | 134 ± 9 | 128 ± 9 | 123 ± 8 | 119 ± 8 | 115 ± 8 | 111 ± 8 |
| C1COCCO1 [1,4-dioxane] + CCCCn1cc[n+](C)c1.N#CN=C=[N-] | 1.06 ± 0.07 | 1.13 ± 0.07 | 1.21 ± 0.08 | 1.28 ± 0.08 | 1.36 ± 0.09 | 1.43 ± 0.09 |
| C1CCCCC1 [cyclohexane] + CCCCn1cc[n+](C)c1.N#CN=C=[N-] | 25.8 ± 1.8 | 25 ± 1.7 | 24.3 ± 1.7 | 23.7 ± 1.6 | 23.1 ± 1.6 | 22.6 ± 1.5 |
| C1CCCCCC1 [cycloheptane] + CCCCn1cc[n+](C)c1.N#CN=C=[N-] | 32.6 ± 2.2 | 31.2 ± 2.1 | 30.1 ± 2.1 | 29.1 ± 2 | 28.1 ± 1.9 | 27.3 ± 1.9 |
| Cc1ccc(C)cc1 [1,4-dimethylbenzene] + CCCCn1cc[n+](C)c1.N#CN=C=[N-] | 4.44 ± 0.3 | 4.62 ± 0.31 | 4.82 ± 0.33 | 5 ± 0.34 | 5.18 ± 0.35 | 5.37 ± 0.37 |
| C=Cc1ccccc1 [styrene] + CCCCn1cc[n+](C)c1.N#CN=C=[N-] | 2.15 ± 0.15 | 2.28 ± 0.16 | 2.41 ± 0.16 | 2.53 ± 0.17 | 2.65 ± 0.18 | 2.78 ± 0.19 |
| Cc1cccc(C)c1 [1,3-dimethylbenzene] + CCCCn1cc[n+](C)c1.N#CN=C=[N-] | 4.65 ± 0.32 | 4.82 ± 0.33 | 5.03 ± 0.34 | 5.19 ± 0.35 | 5.38 ± 0.37 | 5.56 ± 0.38 |
| c1ccsc1 [thiophene] + CCCCn1cc[n+](C)c1.N#CN=C=[N-] | 1.14 ± 0.07 | 1.22 ± 0.08 | 1.29 ± 0.08 | 1.36 ± 0.09 | 1.43 ± 0.09 | 1.5 ± 0.1 |
| Cc1ccccc1 [toluene] + CCCCn1cc[n+](C)c1.N#CN=C=[N-] | 2.89 ± 0.2 | 3.01 ± 0.2 | 3.15 ± 0.21 | 3.27 ± 0.22 | 3.4 ± 0.2 | 3.54 ± 0.24 |
| CCCCCCCCCC [decane] + CCCCn1cc[n+](C)c1.N#CN=C=[N-] | 314 ± 22 | 285 ± 20 | 260 ± 18 | 239 ± 16 | 221 ± 15 | 205 ± 14 |
| C1CCCC1 [cyclopentane] + CCCCn1cc[n+](C)c1.N#CN=C=[N-] | 17.4 ± 1.2 | 16.9 ± 1.2 | 16.3 ± 1.1 | 15.9 ± 1.1 | 15.5 ± 1.1 | 15.1 ± 1 |
| C1CCOC1 [tetrahydrofuran] + CCCCn1cc[n+](C)c1.N#CN=C=[N-] | 1.55 ± 0.1 | 1.63 ± 0.11 | 1.71 ± 0.11 | 1.78 ± 0.12 | 1.85 ± 0.12 | 1.93 ± 0.13 |
| C=CCCCCCC [oct-1-ene] + CCCCn1cc[n+](C)c1.N#CN=C=[N-] | 60.1 ± 4.1 | 58.9 ± 4 | 58 ± 4 | 57 ± 3.9 | 56.2 ± 3.8 | 55.5 ± 3.8 |
| CCC[N+](=O)[O-] [1-nitropropane] + CCCCn1cc[n+](C)c1.N#CN=C=[N-] | 1.26 ± 0.08 | 1.31 ± 0.09 | 1.36 ± 0.09 | 1.41 ± 0.09 | 1.45 ± 0.1 | 1.5 ± 0.1 |
| c1ccccc1 [benzene] + CCCCn1cc[n+](C)c1.N#CN=C=[N-] | 1.87 ± 0.13 | 1.95 ± 0.13 | 2.03 ± 0.14 | 2.11 ± 0.14 | 2.19 ± 0.15 | 2.28 ± 0.16 |
| C1CCCCCCC1 [cyclooctane] + CCCCn1cc[n+](C)c1.N#CN=C=[N-] | 42.4 ± 2.9 | 40.4 ± 2.8 | 38.6 ± 2.6 | 37.1 ± 2.5 | 35.8 ± 2.4 | 34.5 ± 2.4 |
| CC1CCCCC1 [methylcyclohexane] + CCCCn1cc[n+](C)c1.N#CN=C=[N-] | 40.2 ± 2.8 | 38.3 ± 2.6 | 36.5 ± 2.5 | 35 ± 2.4 | 33.6 ± 2.3 | 32.4 ± 2.2 |

Other lines, results leading:

| activity coefficient (318.15 K) | activity coefficient (328.15 K) | activity coefficient (338.15 K) | activity coefficient (348.15 K) | activity coefficient (358.15 K) | activity coefficient (368.15 K) | SMILES |
| --- | --- | --- | --- | --- | --- | --- |
| 10.7 ± 0.7 | 11.1 ± 0.8 | 11.5 ± 0.8 | 11.8 ± 0.8 | 12.2 ± 0.8 | 12.5 ± 0.9 | CCC(C)(C)OC [2-methoxy-2-methylbutane] + CCCCn1cc[n+](C)c1.N#CN=C=[N-] |
| 111 ± 8 | 105 ± 7 | 101 ± 7 | 96.5 ± 6.6 | 92.8 ± 6.4 | 89.2 ± 6.1 | CC(C)CC(C)(C)C [2,2,4-trimethylpentane] + CCCCn1cc[n+](C)c1.N#CN=C=[N-] |
| 0.399 ± 0.034 | 0.408 ± 0.034 | 0.42 ± 0.035 | 0.431 ± 0.035 | 0.442 ± 0.036 | 0.46 ± 0.036 | CO [methanol] + CCCCn1cc[n+](C)c1.N#CN=C=[N-] |
| 2.36 ± 0.16 | 2.47 ± 0.17 | 2.59 ± 0.18 | 2.7 ± 0.18 | 2.81 ± 0.19 | 2.92 ± 0.2 | CCC(=O)OC [methyl propanoate] + CCCCn1cc[n+](C)c1.N#CN=C=[N-] |
| 61.6 ± 4.2 | 59.3 ± 4.1 | 57.1 ± 3.9 | 55.2 ± 3.8 | 53.4 ± 3.7 | 51.7 ± 3.5 | CCCCCC [hexane] + CCCCn1cc[n+](C)c1.N#CN=C=[N-] |
| 0.65 ± 0.044 | 0.658 ± 0.045 | 0.669 ± 0.045 | 0.677 ± 0.046 | 0.686 ± 0.046 | 0.694 ± 0.047 | CCO [ethanol] + CCCCn1cc[n+](C)c1.N#CN=C=[N-] |
| 18.1 ± 1.2 | 18.4 ± 1.3 | 18.7 ± 1.3 | 19.1 ± 1.3 | 19.3 ± 1.3 | 19.7 ± 1.3 | CCOC(C)(C)C [2-ethoxy-2-methylpropane] + CCCCn1cc[n+](C)c1.N#CN=C=[N-] |
| 1.11 ± 0.07 | 1.14 ± 0.07 | 1.16 ± 0.07 | 1.19 ± 0.08 | 1.21 ± 0.08 | 1.24 ± 0.08 | CC(C)(C)O [2-methylpropan-2-ol] + CCCCn1cc[n+](C)c1.N#CN=C=[N-] |
| 1.08 ± 0.07 | 1.08 ± 0.07 | 1.09 ± 0.07 | 1.09 ± 0.07 | 1.09 ± 0.07 | 1.09 ± 0.07 | CC(C)CO [2-methyl-1-propanol] + CCCCn1cc[n+](C)c1.N#CN=C=[N-] |
| 0.781 ± 0.051 | 0.813 ± 0.053 | 0.844 ± 0.054 | 0.876 ± 0.056 | 0.904 ± 0.057 | 0.934 ± 0.059 | CC#N [acetonitrile] + CCCCn1cc[n+](C)c1.N#CN=C=[N-] |
| 2.04 ± 0.14 | 2.16 ± 0.15 | 2.27 ± 0.15 | 2.38 ± 0.16 | 2.49 ± 0.17 | 2.6 ± 0.18 | CCC(=O)CC [pentan-3-one] + CCCCn1cc[n+](C)c1.N#CN=C=[N-] |
| 3.46 ± 0.24 | 3.61 ± 0.25 | 3.75 ± 0.26 | 3.9 ± 0.27 | 4.03 ± 0.27 | 4.17 ± 0.28 | CCCC(=O)OC [methyl butanoate] + CCCCn1cc[n+](C)c1.N#CN=C=[N-] |
| 3.7 ± 0.3 | 3.94 ± 0.27 | 4.16 ± 0.28 | 4.38 ± 0.3 | 4.6 ± 0.3 | 4.84 ± 0.33 | C#CCCC [1-pentyne] + CCCCn1cc[n+](C)c1.N#CN=C=[N-] |
| 26.4 ± 1.8 | 25.9 ± 1.8 | 25.5 ± 1.7 | 25.1 ± 1.7 | 24.7 ± 1.7 | 24.4 ± 1.7 | C=CCCCC [hex-1-ene] + CCCCn1cc[n+](C)c1.N#CN=C=[N-] |
| 5.43 ± 0.37 | 5.76 ± 0.39 | 6.12 ± 0.42 | 6.49 ± 0.44 | 6.85 ± 0.47 | 7.23 ± 0.49 | C#CCCCC [1-hexyne] + CCCCn1cc[n+](C)c1.N#CN=C=[N-] |
| 1.61 ± 0.11 | 1.71 ± 0.11 | 1.81 ± 0.12 | 1.9 ± 0.13 | 1.99 ± 0.14 | 2.09 ± 0.14 | COC(C)=O [methyl ethanoate] + CCCCn1cc[n+](C)c1.N#CN=C=[N-] |
| 1.61 ± 0.11 | 1.67 ± 0.11 | 1.74 ± 0.12 | 1.8 ± 0.12 | 1.87 ± 0.13 | 1.93 ± 0.13 | CCCC=O [butanal] + CCCCn1cc[n+](C)c1.N#CN=C=[N-] |
